Assay results published in US5073571A, “Method of inhibiting virus” (priority 1989, dated 1991).

What was measured:
[1] = tested on: uninfected H9 cells; assay: Metabolic labeling tests using uninfected H9 cells; format: cell-based, human; conditions: 0.1 to 100 μM
Protocol: Toxicity Studies. These analyses were conducted for both assay systems. Cell survival was determined by trypan-blue exclusion. The number of unstained cells/mL in the treated cultures was divided by the number of unstained cells/mL in the untreated control cultures and expressed as percent control. Protein synthesis was measured at the end of the treatment periods by metabolic labeling for 4 hrs with L-[4,5^3 H(N)]-leucine (2 μCi/mL media, specific activity =140 Ci/mmol). All cells contained in a given well of a 24 well plate were recovered by scraping, the protein precipitated by TCA (final concentration =10%) and the solution subsequently incubated at 100° C. for 5 min prior to passage over glass fiber filters (Whatman). In the case of the H-9 assay, treated or untreated cells were pulsed labeled at the conclusion of the 10 day incubation. For the MoMLV assay, labeling studies were performed on LZ1 virus producing cells at the conclusion of the 2 day treatment period. An additional control test was performed on NIH 3T3 cells that had never been exposed to virus but which had been incubated with media (± analog) for two days. DNA synthesis was assessed on day 10 of the H9 assay. Cells were labeled for 12 h with [5'-^3 H]thymidine (0.5 μCi/mL, specific activity =2 Ci/mmol). All the cells in a well were harvested by scraping, their nucleic acid precipitated with TCA (final concentration =10%), and then collected on glass fiber filters prior to counting.
The cellular toxicity of 13-oxamyristate was analyzed using three independent assays of cell viability. First, viable cell number was determined at the conclusion of the 10 day treatment period using trypan blue exclusion. The percentage of living cells in untreated, HIV-1 infected cultures was reduced by 50% compared to that of untreated, uninfected cells (FIG. 1D). This reflects the cytopathic effects encountered with this strain of HIV-1 [Ratner et al., Nature 313, 277-284 (1985)]. […] To further investigate this hypothesis, the effects of increasing concentrations of the analog on DNA and protein synthesis were determined.

[2] = tested on: HIV-1; assay: HIV-1 replication in H9 cells, p24 antigen ELISA; format: cell-based, HIV-1 strain HXB2gptX (in human H9 cells); conditions: 20-40 μM range
Protocol: Media was changed every other day. The effect of these compounds on virus production was determined by measuring the reverse transcriptase (RT) activity in samples of the cell culture supernatants. […] Negative controls consisted of no additions or 0.1ethanol. The results of duplicate assays were averaged. Panel B -Concentration-dependent effects of 13-oxamyristic acid on HIV-1 replication as measured by RT activity (percent of untreated control) and the presence of p24 antigen (ng/ml determined by ELISA). Error bars indicate the S.E.M. of assays done in triplicate. […] Panel D - Toxicity of 13-oxamyristic acid determined by viable cell count (trypan blue exclusion), as well as by [^3 H]thymidine and [^3 H]leucine labeling (see under Materials and Methods, Example 16, below). The incorporation of these radiolabeled compounds was determined in the total cell population contained in a well after 10 days of treatment with the analog. […]
Assay for HIV-1 Replication. […] The titer of the virus stock was determined by serial dilution using syncytia formation and reverse transcriptase activity (see below) as a measure of infectivity in H9 cells. […]
Virus Assays. Virus was quantitated using supernatant solutions of cells harvested on day 8 (m.o.i.=0.01) or day 10 (m.o.i.=0.001) of treatment. […]

## COCCCCCCCCCCCC(=O)O [13-oxamyristate, 12-(Methoxy)dodecanoic acid]
[1]
  DNA synthetic rates: no significant effects
  growth rates: no significant effects
  protein synthetic rates: no significant effects
[2]
  reduction in virus replication (p24 ELISA): greater than 90%
